Assays:
Type in all cases: cell-based
HCC827 cells = test: Cell growth inhibition (CellTiter-Glo), HCC827; settings: Homo sapiens, 72 h, 3 days
How it was run: (§1)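 Readout was CellTiter-Glo luminescence after 3-day compound treatment at 37° C. Cells were seeded at 5000/well the previous night: HCC827 in RPMI/10% FBS, A431 in DMEM/10% FBS.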

[1] = system: HCC827-SVD cells (human EGFR exon 20 insertion mutant D770_N771insSVD); test: Cell growth inhibition (CellTiter-Glo), HCC827-SVD; settings: 72 h, 3 days
How it was run: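 Growth read by CellTiter-Glo luminescence after 3-day compound exposure at 37 °C. Engineered clonal HCC827 line (native EGFR deleted by CRISPR, mutant EGFR re-expressed) plated at 5000 cells/well in 10% FBS RPMI the night before dosing.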

[2] = system: HCC827-ASV cells (human EGFR exon 20 insertion mutant V769_D770insASV); test: Cell growth inhibition (CellTiter-Glo), HCC827-ASV; settings: 72 h, HCC827-ASV cells, 3 days, CellTiter-Glo, read-out: Cell growth inhibition, GI50 (nM) HCC827-ASV
Protocol: Generation of HCC827-SVD, HCC827-ASV, and HCC827-YVMA cell lines. The HCC827-SVD cell line was generated by first transducing HCC827 cells (ATCC) with lentiviral particles expressing codon-optimized human EGFR exon 20 insertion mutant D770_N771insSVD, and then selecting under 5 µg/mL puromycin treatment for a week. The resulting cells were further transduced with lentiviral particles carrying EGFR sgRNA and CAS9 to knockout the endogenous alleles of EGER and then selected under 500 µg/mL hygromycin B treatment for two weeks. The limiting dilution approach was used to subsequently generate the single clone of the HCC827-SVD stable cell line. Endogenous EGFR knockout was confirmed by Sanger sequencing of cell genomic DNA, and expression of exogenous mutant EGFR was verified by Western blot analysis.
HCC827-ASV and HCC827-YVMA cell lines were generated in a similar approach as HCC827-SVD, except that HCC827 cells (ATCC) were first transduced with lentiviral particles expressing codon-optimized human EGFR exon 20 insertion mutant V769_D770insASV and human ERBB2 exon20 insertion mutant A775_G776ins YVMA, respectively.
2. Cell Growth Inhibition for HCC827, HCC827-SVD, HCC827-ASV, HCC827-YVMA, and A431.
HCC827(ATCC), HCC827-SVD, HCC827-ASV, and HCC827-YVMA cells were seeded in 96-well plates at 5000 cells/well in 90 μL of RPMI growth medium containing 10% FBS and 1% Penicillin Streptomycin. A431 (ATCC) cells were seeded in 96-well plates at 5000 cells/well in 90 μL of DMEM growth medium containing 10% FBS and 1% Penicillin Streptomycin. Cells were incubated at 37° C. overnight and then administered with 10 μL 10× test compounds prepared in the growth medium at various concentrations. After administration of the compounds, cells were incubated at 37° C. for 3 days. Before the CellTiter-Glo assay, the plates were equilibrated at room temperature for approximately 30 minutes. 100 ul of CellTiter-Glo reagent (Promega) was added to each well. The plates were then incubated at room temperature for 10 minutes and luminescence was recorded by the EnSight® multimode plate reader (PerkinElmer). Table 7 listed selected compounds in cellular growth assay.

[3] = system: HCC827-YVMA cells (human ERBB2 exon20 insertion mutant A775_G776ins YVMA); test: Cell growth inhibition (CellTiter-Glo), HCC827-YVMA; settings: 72 h, HCC827-YVMA cells, 3 days, CellTiter-Glo, read-out: Cell growth inhibition, GI50 (nM) HCC827-YVMA
How it was run: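 Growth in RPMI with 10% FBS was measured by CellTiter-Glo luminescence after 3 days at 37 °C with test compounds across a concentration range. The single-clone HCC827 lines carry a lentiviral YVMA (ERBB2) or ASV (EGFR) exon 20 insertion, with endogenous EGFR removed via sgRNA/Cas9.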

A431 cells = test: Cell growth inhibition (CellTiter-Glo), A431; settings: Homo sapiens, A-431, 72 h, 3 days
How it was run: as §1

Compound	GI50 (HCC827 cells)	GI50 [1]	GI50 [2]	GI50 [3]	GI50 (A431 cells)
C=CC(=O)N1CCC(c2c[nH]c3ncnc(Nc4ccc(Oc5ccnc(N6CC(O)(C(F)(F)F)C6)c5)cc4F)c23)CC1 [Compound 144, 1-(4-(4-((2-fluoro-4-((2-(3-hydroxy-3-(trifluoromethyl)azetidin-1-yl)pyridin-4-yl)oxy)phenyl)amino)-7H-pyrrolo[2,3-d]pyrimidin-5-yl)piperidin-1-yl)prop-2-en-1-one]	50 to 200 nM	> 1000 nM	< 50 nM	< 50 nM	> 1000 nM
C=CC(=O)N1CCC(c2c[nH]c3ncnc(Nc4ccc(Oc5ccnc(N6CCN(C)CC6)c5)cc4F)c23)CC1 [Compound 152, 1-(4-(4-((2-fluoro-4-((2-(4-methylpiperazin-1-yl)pyridin-4-yl)oxy)phenyl)amino)-7H-pyrrolo[2,3-d]pyrimidin-5-yl)piperidin-1-yl)prop-2-en-1-one]	> 1000 nM	200 to 1000 nM	200 to 1000 nM	200 to 1000 nM	> 1000 nM
C=CC(=O)N1CCC(c2c[nH]c3ncnc(Nc4ccc(Oc5ccn(Cc6cc(C)ccn6)n5)cc4F)c23)CC1 [Compound 157, 1-(4-(4-((2-fluoro-4-((1-((4-methylpyridin-2-yl)methyl)-1H-pyrazol-3-yl)oxy)phenyl)amino)-7H-pyrrolo[2,3-d]pyrimidin-5-yl)piperidin-1-yl)prop-2-en-1-one]	200 to 1000 nM	50 to 200 nM	50 to 200 nM	50 to 200 nM	> 1000 nM
C=CC(=O)N1CCC(c2csc3ncnc(Nc4ccc(Oc5ccn(Cc6cc(C)ccn6)n5)cc4F)c23)CC1 [Compound 158, 1-(4-(4-((2-fluoro-4-((1-((4-methylpyridin-2-yl)methyl)-1H-pyrazol-3-yl)oxy)phenyl)amino)thieno[2,3-d]pyrimidin-5-yl)piperidin-1-yl)prop-2-en-1-one]	> 1000 nM	> 1000 nM	200 to 1000 nM	50 to 200 nM	> 1000 nM
C=CC(=O)N1CCC(c2csc3ncnc(Nc4ccc(Oc5ccnc(N6C[C@@H](C)O[C@@H](C)C6)c5)cc4F)c23)CC1 [Compound 159, 1-(4-(4-((4-((2-((2R,6S)-2,6-dimethylmorpholino)pyridin-4-yl)oxy)-2-fluorophenyl)amino)thieno[2,3-d]pyrimidin-5-yl)piperidin-1-yl)prop-2-en-1-one]	> 1000 nM	200 to 1000 nM	200 to 1000 nM	200 to 1000 nM	> 1000 nM
C=CC(=O)N1CCC(c2n[nH]c3ncnc(Nc4ccc(Oc5ccn(Cc6cc(C)ccn6)n5)cc4F)c23)CC1 [Compound 164, 1-(4-(4-((2-fluoro-4-((1-((4-methylpyridin-2-yl)methyl)-1H-pyrazol-3-yl)oxy)phenyl)amino)-1H-pyrazolo[3,4-d]pyrimidin-3-yl)piperidin-1-yl)prop-2-en-1-one]	200 to 1000 nM	200 to 1000 nM	200 to 1000 nM	50 to 200 nM	200 to 1000 nM
C=CC(=O)N1[C@@H]2CC[C@H]1CC(c1c[nH]c3ncnc(Nc4ccc(OCc5ccccn5)c(Cl)c4)c13)C2 (stereo partly drawn) [Compound 230]	–	< 50 nM	< 50 nM	< 50 nM	–
C=CC(=O)N1CCC(c2c[nH]c3ncnc(Nc4ccc(Oc5ccnc(NC(=O)C6CCC6)c5)cc4F)c23)CC1 [Compound 231, N-(4-(4-((5-(1-acryloylpiperidin-4-yl)-7H-pyrrolo[2,3-d]pyrimidin-4-yl)amino)-3-fluorophenoxy)pyridin-2-yl)cyclobutanecarboxamide]	–	50 to 200 nM	50 to 200 nM	50 to 200 nM	–

The remaining lines, values ahead:

GI50 (HCC827 cells)	GI50 [1]	GI50 [2]	GI50 [3]	GI50 (A431 cells)	Compound
50 to 200 nM	50 to 200 nM	< 50 nM	< 50 nM	200 to 1000 nM	C=CC(=O)N1CCC(c2c[nH]c3ncnc(Nc4ccc(Oc5ccnc(NC(=O)C6CCCC6)c5)cc4F)c23)CC1 [Compound 90, N-(4-(4-((5-(1-acryloylpiperidin-4-yl)-7H-pyrrolo[2,3-d]pyrimidin-4-yl)amino)-3-fluorophenoxy)pyridin-2-yl)cyclopentanecarboxamide]
> 1000 nM	< 50 nM	< 50 nM	< 50 nM	200 to 1000 nM	C=CC(=O)N1CCC(c2c[nH]c3ncnc(Nc4ccc(Oc5ccnc(Nc6ccccn6)c5)cc4F)c23)CC1 [Compound 135, 1-(4-(4-((2-fluoro-4-((2-(pyridin-2-ylamino)pyridin-4-yl)oxy)phenyl)amino)-7H-pyrrolo[2,3-d]pyrimidin-5-yl)piperidin-1-yl)prop-2-en-1-one]
200 to 1000 nM	50 to 200 nM	< 50 nM	< 50 nM	> 1000 nM	C=CC(=O)N1CCC(c2c[nH]c3ncnc(Nc4ccc(Oc5ccnc(-n6ccc(OC)n6)c5)cc4F)c23)CC1 [Compound 136, 1-(4-(4-((2-fluoro-4-((2-(3-methoxy-1H-pyrazol-1-yl)pyridin-4-yl)oxy)phenyl)amino)-7H-pyrrolo[2,3-d]pyrimidin-5-yl)piperidin-1-yl)prop-2-en-1-one]
< 50 nM	< 50 nM	< 50 nM	< 50 nM	200 to 1000 nM	C=CC(=O)N1CC=C(c2c[nH]c3ncnc(Nc4ccc(OCc5ccccn5)c(Cl)c4)c23)CC1 [Compound 154, 1-(4-(4-((3-chloro-4-(pyridin-2-ylmethoxy)phenyl)amino)-7H-pyrrolo[2,3-d]pyrimidin-5-yl)-3,6-dihydropyridin-1(2H)-yl)prop-2-en-1-one]
> 1000 nM	50 to 200 nM	200 to 1000 nM	50 to 200 nM	> 1000 nM	C=CC(=O)N1CCC(c2c[nH]c3ncnc(Nc4ccc(Oc5ccnc(N6C[C@@H](C)O[C@@H](C)C6)c5)cc4F)c23)CC1 [Compound 155, 1-(4-(4-((4-((2-((2S,6R)-2,6-dimethylmorpholino)pyridin-4-yl)oxy)-2-fluorophenyl)amino)-7H-pyrrolo[2,3-d]pyrimidin-5-yl)piperidin-1-yl)prop-2-en-1-one]
< 50 nM	< 50 nM	< 50 nM	< 50 nM	< 50 nM	C=CC(=O)N1CCC(c2c[nH]c3ncnc(Nc4ccc(OCc5ccccn5)c(Cl)c4)c23)CC1 [Compound 156, 1-(4-(4-((3-chloro-4-(pyridin-2-ylmethoxy)phenyl)amino)-7H-pyrrolo[2,3-d]pyrimidin-5-yl)piperidin-1-yl)prop-2-en-1-one]
< 50 nM	< 50 nM	< 50 nM	< 50 nM	< 50 nM	C=CC(=O)N1CCC(c2csc3ncnc(Nc4ccc(OCc5ccccn5)c(Cl)c4)c23)CC1 [Compound 160, 1-[4-[4-[3-chloro-4-(2-pyridylmethoxy)anilino]thieno[2,3-d]pyrimidin-5-yl]-1-piperidyl]prop-2-en-1-one]
–	< 50 nM	< 50 nM	< 50 nM	–	C=CC(=O)N1CCC(c2c[nH]c3ncnc(Nc4ccc(OCc5ccsn5)c(Cl)c4)c23)CC1 [Compound 229, 1-(4-(4-((3-chloro-4-(isothiazol-3-ylmethoxy)phenyl)amino)-7H-pyrrolo[2,3-d]pyrimidin-5-yl)piperidin-1-yl)prop-2-en-1-one]
–	< 50 nM	< 50 nM	< 50 nM	> 1000 nM	C=CC(=O)N1CCC(c2c[nH]c3ncnc(Nc4ccc(Oc5ccnc(NC(=O)C6CC6)c5)cc4F)c23)CC1 [Compound 232, N-(4-(4-((5-(1-acryloylpiperidin-4-yl)-7H-pyrrolo[2,3-d]pyrimidin-4-yl)amino)-3-fluorophenoxy)pyridin-2-yl)cyclopropanecarboxamide]
